For three molecules, kinase still bound, per cent of control results are on record in the kinase profiling compilation of Christmann-Franck et al. (2016).

Among the targets are RIOK3 (human) (UniProt O14730); RPS6KA1 KD1 (human) (UniProt Q15418); NEK9 (human) (UniProt Q8TD19); RIOK2 (human) (UniProt Q9BVS4); LCK (human) (UniProt P06239); BMP2K (human) (UniProt Q9NSY1); SGK110 (human) (UniProt P0C264); STK16 (human) (UniProt O75716); MYLK2 (human) (UniProt Q9H1R3); PIP5K1A (human) (UniProt Q99755); AURKA (human) (UniProt O14965); MELK (human) (UniProt Q14680); PIP4K2B (human) (UniProt P78356); MYLK3 (human) (UniProt Q32MK0); AURKB (human) (UniProt Q96GD4); ACVR1 (human) (UniProt Q04771); PIK3CG (human) (UniProt P48736); PLK3 (human) (UniProt Q9H4B4); SRPK3 (human) (UniProt Q9UPE1); STK17A (human) (UniProt Q9UEE5); ADCK4 (human) (UniProt Q96D53); MAPK7 (human) (UniProt Q13164); LATS2 (human) (UniProt Q9NRM7); GAK (human) (UniProt O14976); MAP4K2 (human) (UniProt Q12851); DCLK1 (human) (UniProt O15075); NEK2 (human) (UniProt P51955); NLK (human) (UniProt Q9UBE8); CSNK1D (human) (UniProt P48730); MINK1 (human) (UniProt Q8N4C8); PLK4 (human) (UniProt O00444); MERTK (human) (UniProt Q12866); CSNK1E (human) (UniProt P49674); FYN (human) (UniProt P06241); CDK7 (human) (UniProt P50613); TNK1 (human) (UniProt Q13470); CSNK1G3 (human) (UniProt Q9Y6M4); TTK (human) (UniProt P33981); SLK (human) (UniProt Q9H2G2); NEK5 (human) (UniProt Q6P3R8); MYLK4 (human) (UniProt Q86YV6); AAK1 (human) (UniProt Q2M2I8); RIOK1 (human) (UniProt Q9BRS2); IRAK3 (human) (UniProt Q9Y616); AURKC (human) (UniProt Q9UQB9); MAP4K4 (human) (UniProt O95819); PLK1 (human) (UniProt P53350); TXK (human) (UniProt P42681); TNIK (human) (UniProt Q9UKE5); MYO3B (human) (UniProt Q8WXR4); LATS1 (human) (UniProt O95835); MAP2K3 (human) (UniProt P46734); IGF1R (human) (UniProt P08069); PAK1 (human) (UniProt Q13153); LIMK2 (human) (UniProt P53671); DCLK2 (human) (UniProt Q8N568); STK33 (human) (UniProt Q9BYT3); MYLK (human) (UniProt Q15746); ROS1 (human) (UniProt P08922); CAMKK2 (human) (UniProt Q96RR4); CDC42BPG (human) (UniProt Q6DT37).

Holding throughout (test): KINOMEscan competition binding
Holding throughout (conditions): compound 10.0 µM

In test [1] the target is TYK2 JH2 pseudokinase (human) (UniProt P29597).
For test [2], the target named is JAK2 JH1 catalytic (human) (UniProt O60674).
For test [3], the target named is TYK2 JH1 catalytic (human) (UniProt P29597).

Chain of TNK1 (human) (Q13470 whole entry, looked up): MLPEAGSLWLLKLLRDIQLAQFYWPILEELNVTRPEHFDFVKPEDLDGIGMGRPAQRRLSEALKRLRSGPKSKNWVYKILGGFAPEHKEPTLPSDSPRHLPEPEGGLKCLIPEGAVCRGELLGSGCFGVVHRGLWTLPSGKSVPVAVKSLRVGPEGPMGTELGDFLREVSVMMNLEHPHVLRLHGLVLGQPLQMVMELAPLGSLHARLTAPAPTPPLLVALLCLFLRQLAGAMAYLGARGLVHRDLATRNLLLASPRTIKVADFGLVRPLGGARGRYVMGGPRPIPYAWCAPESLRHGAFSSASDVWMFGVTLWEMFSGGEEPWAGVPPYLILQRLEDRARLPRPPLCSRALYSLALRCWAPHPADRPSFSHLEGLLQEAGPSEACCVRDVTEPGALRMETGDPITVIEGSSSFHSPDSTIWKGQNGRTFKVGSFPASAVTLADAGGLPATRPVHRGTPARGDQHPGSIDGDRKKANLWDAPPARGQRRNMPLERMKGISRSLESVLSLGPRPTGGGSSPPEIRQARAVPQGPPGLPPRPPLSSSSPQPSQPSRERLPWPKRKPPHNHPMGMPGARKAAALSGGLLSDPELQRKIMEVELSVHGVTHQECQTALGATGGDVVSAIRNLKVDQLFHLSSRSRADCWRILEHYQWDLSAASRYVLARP
Chain of DCLK1 (human) (O15075 whole entry, looked up): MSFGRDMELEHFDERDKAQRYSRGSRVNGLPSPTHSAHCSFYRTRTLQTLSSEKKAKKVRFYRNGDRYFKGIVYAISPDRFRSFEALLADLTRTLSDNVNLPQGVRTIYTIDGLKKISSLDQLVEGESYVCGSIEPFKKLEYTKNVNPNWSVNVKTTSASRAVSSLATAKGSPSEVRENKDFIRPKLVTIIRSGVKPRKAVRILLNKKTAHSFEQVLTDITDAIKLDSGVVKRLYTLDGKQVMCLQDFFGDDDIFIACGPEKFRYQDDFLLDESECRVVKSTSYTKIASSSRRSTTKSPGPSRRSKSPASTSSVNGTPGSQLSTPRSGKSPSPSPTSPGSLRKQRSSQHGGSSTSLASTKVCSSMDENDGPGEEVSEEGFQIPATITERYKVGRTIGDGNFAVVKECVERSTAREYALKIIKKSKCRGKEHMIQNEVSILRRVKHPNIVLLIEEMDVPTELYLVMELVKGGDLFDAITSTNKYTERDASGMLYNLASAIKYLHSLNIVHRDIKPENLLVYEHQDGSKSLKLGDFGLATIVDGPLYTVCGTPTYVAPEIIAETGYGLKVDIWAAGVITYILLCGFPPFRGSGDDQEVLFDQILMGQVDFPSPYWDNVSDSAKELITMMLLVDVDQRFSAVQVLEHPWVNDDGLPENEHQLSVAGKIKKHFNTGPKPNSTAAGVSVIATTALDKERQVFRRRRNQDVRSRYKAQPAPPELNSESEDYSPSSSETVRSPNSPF
Chain of GAK (human) (O14976 whole entry, looked up): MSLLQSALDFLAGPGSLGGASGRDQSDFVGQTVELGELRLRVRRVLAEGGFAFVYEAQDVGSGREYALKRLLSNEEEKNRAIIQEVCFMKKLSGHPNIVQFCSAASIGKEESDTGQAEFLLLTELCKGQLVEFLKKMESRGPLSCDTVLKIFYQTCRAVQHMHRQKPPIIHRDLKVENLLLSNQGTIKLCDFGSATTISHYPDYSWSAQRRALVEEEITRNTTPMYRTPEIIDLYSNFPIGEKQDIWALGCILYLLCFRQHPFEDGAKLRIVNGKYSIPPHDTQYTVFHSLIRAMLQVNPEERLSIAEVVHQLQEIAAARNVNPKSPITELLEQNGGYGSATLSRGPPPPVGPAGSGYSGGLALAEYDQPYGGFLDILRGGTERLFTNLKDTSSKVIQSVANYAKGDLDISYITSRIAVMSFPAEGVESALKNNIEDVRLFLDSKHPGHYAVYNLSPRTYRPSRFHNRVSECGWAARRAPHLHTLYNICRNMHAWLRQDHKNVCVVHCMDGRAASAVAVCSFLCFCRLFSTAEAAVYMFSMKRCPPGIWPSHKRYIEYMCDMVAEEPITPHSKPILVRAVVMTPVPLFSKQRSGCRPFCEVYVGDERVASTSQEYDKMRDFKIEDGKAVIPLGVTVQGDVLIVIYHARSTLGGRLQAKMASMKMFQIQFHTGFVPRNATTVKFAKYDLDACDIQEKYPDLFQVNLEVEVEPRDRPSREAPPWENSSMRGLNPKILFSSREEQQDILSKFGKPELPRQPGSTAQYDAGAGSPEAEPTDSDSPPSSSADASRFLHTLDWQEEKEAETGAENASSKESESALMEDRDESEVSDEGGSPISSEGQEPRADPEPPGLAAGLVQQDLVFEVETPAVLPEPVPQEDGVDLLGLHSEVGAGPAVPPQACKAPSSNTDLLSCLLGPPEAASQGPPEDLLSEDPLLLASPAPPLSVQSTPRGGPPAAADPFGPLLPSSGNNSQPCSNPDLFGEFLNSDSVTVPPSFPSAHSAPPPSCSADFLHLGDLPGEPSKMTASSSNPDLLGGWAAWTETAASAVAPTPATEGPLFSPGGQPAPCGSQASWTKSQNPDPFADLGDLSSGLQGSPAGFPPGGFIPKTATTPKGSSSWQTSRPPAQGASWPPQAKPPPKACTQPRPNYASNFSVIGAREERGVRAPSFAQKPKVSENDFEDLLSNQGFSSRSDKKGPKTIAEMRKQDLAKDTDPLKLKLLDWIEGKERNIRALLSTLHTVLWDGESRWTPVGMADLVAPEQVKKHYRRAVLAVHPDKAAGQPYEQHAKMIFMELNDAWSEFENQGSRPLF
Chain of PLK1 (human) (P53350 whole entry, looked up): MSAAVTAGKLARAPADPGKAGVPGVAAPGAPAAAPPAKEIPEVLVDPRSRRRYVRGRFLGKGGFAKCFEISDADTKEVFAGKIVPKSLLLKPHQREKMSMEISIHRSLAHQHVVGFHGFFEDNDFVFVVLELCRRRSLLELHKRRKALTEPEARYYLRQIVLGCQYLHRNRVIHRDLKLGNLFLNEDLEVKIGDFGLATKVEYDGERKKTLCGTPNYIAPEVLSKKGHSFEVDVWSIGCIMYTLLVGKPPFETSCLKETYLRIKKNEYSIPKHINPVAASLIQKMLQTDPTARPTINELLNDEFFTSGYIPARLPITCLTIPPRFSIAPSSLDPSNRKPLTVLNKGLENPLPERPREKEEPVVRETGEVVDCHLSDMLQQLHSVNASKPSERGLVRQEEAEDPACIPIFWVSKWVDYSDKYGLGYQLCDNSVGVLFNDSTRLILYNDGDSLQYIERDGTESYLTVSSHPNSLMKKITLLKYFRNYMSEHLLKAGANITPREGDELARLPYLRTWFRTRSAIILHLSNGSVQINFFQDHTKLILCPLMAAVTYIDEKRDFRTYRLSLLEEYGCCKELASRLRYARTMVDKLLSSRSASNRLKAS
Chain of PLK3 (human) (Q9H4B4 whole entry, looked up): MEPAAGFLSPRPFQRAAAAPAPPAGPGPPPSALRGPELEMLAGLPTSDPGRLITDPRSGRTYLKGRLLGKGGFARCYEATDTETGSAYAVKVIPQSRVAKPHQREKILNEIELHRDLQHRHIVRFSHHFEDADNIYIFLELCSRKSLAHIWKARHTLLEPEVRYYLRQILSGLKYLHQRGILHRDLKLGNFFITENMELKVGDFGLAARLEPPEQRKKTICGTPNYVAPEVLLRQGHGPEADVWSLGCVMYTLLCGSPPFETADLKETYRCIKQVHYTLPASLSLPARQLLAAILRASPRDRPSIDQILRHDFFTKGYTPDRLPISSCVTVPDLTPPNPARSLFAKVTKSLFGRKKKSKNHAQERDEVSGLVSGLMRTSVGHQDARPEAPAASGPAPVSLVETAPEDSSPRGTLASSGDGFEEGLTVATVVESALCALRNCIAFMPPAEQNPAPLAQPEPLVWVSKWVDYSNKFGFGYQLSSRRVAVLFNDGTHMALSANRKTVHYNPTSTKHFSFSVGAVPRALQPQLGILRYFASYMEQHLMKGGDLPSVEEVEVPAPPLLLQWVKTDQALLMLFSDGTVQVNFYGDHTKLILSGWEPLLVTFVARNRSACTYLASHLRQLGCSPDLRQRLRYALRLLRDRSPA
Chain of MAPK7 (human) (Q13164 whole entry, looked up): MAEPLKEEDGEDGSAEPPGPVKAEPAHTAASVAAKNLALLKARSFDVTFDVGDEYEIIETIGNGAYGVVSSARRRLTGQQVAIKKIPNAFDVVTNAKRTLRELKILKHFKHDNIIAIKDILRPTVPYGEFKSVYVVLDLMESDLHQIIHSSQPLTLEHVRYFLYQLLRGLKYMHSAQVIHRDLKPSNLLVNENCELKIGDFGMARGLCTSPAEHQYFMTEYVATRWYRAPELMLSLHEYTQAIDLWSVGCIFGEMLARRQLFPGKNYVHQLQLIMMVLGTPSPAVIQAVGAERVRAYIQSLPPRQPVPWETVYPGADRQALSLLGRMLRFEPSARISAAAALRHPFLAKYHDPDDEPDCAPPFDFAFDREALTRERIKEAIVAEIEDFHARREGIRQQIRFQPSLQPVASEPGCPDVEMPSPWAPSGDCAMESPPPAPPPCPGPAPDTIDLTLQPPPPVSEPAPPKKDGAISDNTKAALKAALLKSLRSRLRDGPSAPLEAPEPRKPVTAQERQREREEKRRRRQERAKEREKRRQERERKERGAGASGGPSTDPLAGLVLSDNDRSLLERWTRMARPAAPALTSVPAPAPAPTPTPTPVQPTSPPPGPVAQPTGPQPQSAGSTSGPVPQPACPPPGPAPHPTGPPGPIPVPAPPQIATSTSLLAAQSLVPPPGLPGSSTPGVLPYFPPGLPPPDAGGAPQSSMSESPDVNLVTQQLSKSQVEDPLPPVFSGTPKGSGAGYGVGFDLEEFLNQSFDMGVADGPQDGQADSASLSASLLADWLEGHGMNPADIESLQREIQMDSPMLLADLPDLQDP

Regarding `CN1C(=O)[C@H]2CCC[C@H]2N(C2CCCC2)c2nc(Nc3ccc4ncccc4c3)ncc21`, the kinase still bound, per cent of control on RIOK3 (human) stood at 7.6%; at RPS6KA1 KD1 (human), 27%; at NEK9 (human), 30%; at RIOK2 (human), 0.35%; at LCK (human) it was 19%; on BMP2K (human) it was 2.1%. In addition, the kinase still bound, per cent of control at SGK110 (human) came to 30%; on STK16 (human) it was 2.2%; on MYLK2 (human), 8.3%; at PIP5K1A (human), 19%; at AURKA (human), 11%; on MELK (human) it was 26%. Besides, the kinase still bound, per cent of control at PIP4K2B (human) was determined as 13%; on MYLK3 (human), 7.6%; at AURKB (human), 21%; on ACVR1 (human), 16%; on PIK3CG (human), 34%; in [1], 31%. The kinase still bound, per cent of control at PLK3 (human) was 10%; in [2], 15%; on SRPK3 (human) it was 20%; on STK17A (human), 3.3%; on ADCK4 (human), 10%; on MAPK7 (human), 0.25%. Also, the kinase still bound, per cent of control on LATS2 (human) stood at 14%; on GAK (human), 1.8%; at MAP4K2 (human) it was 23%; on DCLK1 (human) it was 12%; on NEK2 (human), 31%; on NLK (human) it was 12%. Also, the kinase still bound, per cent of control at CSNK1D (human) came out at 4.3%; on MINK1 (human) it was 1.6%; on PLK4 (human) it was 1.9%; on MERTK (human) it was 28%; at CSNK1E (human) it was 0.15%; at FYN (human), 34%. The kinase still bound, per cent of control worked out at 30% on CDK7 (human); 1.6% at TNK1 (human); 20% at CSNK1G3 (human); 26% on TTK (human); 18% on SLK (human); 11% at NEK5 (human). Moreover, the kinase still bound, per cent of control on MYLK4 (human) stood at 33%; in [3] it was 25%; at AAK1 (human) it was 12%; at RIOK1 (human), 7.2%; at IRAK3 (human), 16%; on AURKC (human) it was 4.6%. Further, the kinase still bound, per cent of control on MAP4K4 (human) was determined as 0.8%; on PLK1 (human), 0.25%; at TXK (human) it was 34%; at TNIK (human), 14%.
Take `O=C1NC(=O)C(=Cc2ccc(-c3ccc([N+](=O)[O-])cc3)o2)C(=O)N1`: the kinase still bound, per cent of control at MYO3B (human) worked out at 28%; on LATS1 (human), 0%; on MAP2K3 (human), 15%; at IGF1R (human), 34%; on PAK1 (human), 17%.
In the case of `COc1cc(C(=O)NC2CCN(C)CC2)ccc1Nc1ncc2c(n1)N(C1CCCC1)[C@@H]1CCC[C@@H]1C(=O)N2C`, the kinase still bound, per cent of control on LIMK2 (human) is 8.3%; on PLK3 (human), 0%; on DCLK2 (human) it was 2.8%; at MAPK7 (human), 0.6%; on GAK (human), 13%; at DCLK1 (human), 2.4%. Further, the kinase still bound, per cent of control on STK33 (human) came to 11%; at MYLK (human), 2.6%; at ROS1 (human), 31%; on CAMKK2 (human), 22%; on TNK1 (human), 21%; on TTK (human) it was 28%. Besides, the figures for the kinase still bound, per cent of control at SLK (human), at CDC42BPG (human) and on PLK1 (human) were 5.8%, 12% and 15%, respectively.
